PMC7051184, “C9orf72 arginine-rich dipeptide repeat proteins disrupt karyopherin-mediated nuclear import” (eLife, 2020)
Where a SMILES comes first, the peptide text is derived from it.

How the values were obtained:
[1] = system: importin β; assay: Bead halo assay, biotinylated importin β on neutravidin beads; assay type: binding, human; details: AF488-labeled; 1 mg/ml neuronal lysate added
Experimental: To prepare biotinylated WT importin β-Avitag (pKW1982, pK1099), BL21DE3 cells (New England Biolabs, Ipswich, MA) were co-transfected with the respective plasmids together with pAC-biotin ligase (Avidity), followed by plating and growth in LB media containing ampicillin and chloramphenicol. After the 37°C cultures reached OD600nm + 0.4–0.6, the cultures were cooled to room temperature, supplemented with 100 µM D-biotin, and the expression was induced with 0.3 mM IPTG at room temperature for 8–11 hr (pKW762). Proteins were purified on Ni-NTA resin as described for the non-biotinylated importin β fragments.
(§1) The bead halo assay was carried out as described with minor modifications ([Patel and Rexach, 2008]), using […] polystyrene beads coated with neutravidin (for biotinylated proteins) or glutathione (for GST-fusion proteins) (Spherotech, Lake Forest, IL). Beads were coated overnight at 4°C at saturating concentrations per manufacturers’ instructions and rinsed 2x in binding buffer (20 mM HEPES [pH 7.4], 150 mM KOAc, 2 mM Mg(OAc)2, 1 mM DTT, 0.1% Tween-20). Immediately prior to the assay, fluorescent bait proteins and beads were combined with 4x assay buffer (40 mM EDTA, 40 mg/ml BSA, 500 mM NaCl, and 0.2% Tween) to a total of 40 µL per well, in optical glass-bottom 96-well plates (Cellvis, Mountain View, CA). […]

[2] = system: BSA; assay: Bead halo assay, biotinylated BSA-coated beads (non-specific control); assay type: binding; details: AF488-labeled
Experimental: Purified WT importin β (pKW485) diluted to 10 µM in XB was combined with 10-molar excess of Alexa Fluor 647 NHS ester (ThermoFisher), using freshly-prepared 10 mM dye in anhydrous DMSO. After incubation on ice for 2 hr, the sample was dialyzed in PBS and concentrated on 30kD MWCO filter (Millipore Sigma) before storage. A similar protocol was used to label BSA with 10-molar excess Sulfo-NHS-LC-biotin (ThermoFisher), followed by dialysis in PBS.
as §1, with “CA). Reactions were allowed to equilibrate at room temperature for a minimum of 30 min prior to imaging at 100x on an LSM800 confocal microscope (Zeiss, Oberkochen, Germany).” for “CA).”

[3] = target: importin β-mediated nuclear import of Rango (Homo sapiens, UniProt Q14974); assay: Fractionated Rango transport assay (aggregates present or supernatant only), HeLa; assay type: cell-based
Chain of importin β-mediated nuclear import of Rango (Q14974 whole entry): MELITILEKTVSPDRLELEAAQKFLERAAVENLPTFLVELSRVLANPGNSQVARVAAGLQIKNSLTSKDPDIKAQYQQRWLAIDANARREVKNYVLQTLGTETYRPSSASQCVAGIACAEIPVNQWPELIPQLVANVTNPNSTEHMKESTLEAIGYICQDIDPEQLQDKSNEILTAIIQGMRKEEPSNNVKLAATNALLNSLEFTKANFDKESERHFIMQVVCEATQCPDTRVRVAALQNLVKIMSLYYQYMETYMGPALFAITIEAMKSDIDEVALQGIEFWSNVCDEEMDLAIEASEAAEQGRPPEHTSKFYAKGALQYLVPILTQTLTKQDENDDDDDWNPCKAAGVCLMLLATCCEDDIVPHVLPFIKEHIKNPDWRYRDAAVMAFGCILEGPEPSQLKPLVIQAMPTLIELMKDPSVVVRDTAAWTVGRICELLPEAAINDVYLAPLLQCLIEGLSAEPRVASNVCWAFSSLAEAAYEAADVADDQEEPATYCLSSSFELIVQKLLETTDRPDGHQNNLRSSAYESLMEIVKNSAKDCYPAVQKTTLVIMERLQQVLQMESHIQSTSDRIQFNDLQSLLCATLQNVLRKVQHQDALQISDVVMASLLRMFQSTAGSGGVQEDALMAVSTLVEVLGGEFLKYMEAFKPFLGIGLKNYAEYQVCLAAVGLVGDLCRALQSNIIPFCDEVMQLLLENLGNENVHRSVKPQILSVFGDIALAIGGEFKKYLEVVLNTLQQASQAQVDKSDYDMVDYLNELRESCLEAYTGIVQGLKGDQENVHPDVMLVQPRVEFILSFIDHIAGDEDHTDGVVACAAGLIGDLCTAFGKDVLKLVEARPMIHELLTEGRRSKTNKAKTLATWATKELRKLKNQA
Experimental: A single cell-derived clone of HeLa cells (ATCC, Manassas, VA; mycoplasma negative and validated by STR profiling) were maintained in OptiMEM (Gibco/ThermoFisher) with 4% FBS and plated on uncoated optical glass-bottom 96 well plates, at appropriate densities to reach 70–90% confluence on the day of the transport assay. To permeabilize, cells were rinsed for 2 min in ice-cold PBS, and permeabilized on ice for 10 min in 15–30 µg/mL digitonin (Calbiochem, San Diego, CA) in permeabilization buffer (PRB, 20 mM HEPES, 110 mM KOAc, 5 mM Mg(OAc)2, 0.5 mM EGTA, 250 mM sucrose, pH 7.5, with protease inhibitor cocktail). Following permeabilization, cells were placed on ice and rinsed 3 × 5 min in transport buffer (TRB, 20 mM HEPES, 110 mM KOAc, 2 mM Mg(OAc)2, 5 mM NaOAc, 0.5 mM EGTA, 250 mM sucrose, pH 7.3, with protease inhibitor cocktail). The optimal digitonin concentration varied by cell density and passage number, and was optimized prior to each set of assays for the ability to permeabilize the majority of plasma membranes while maintaining nuclear exclusion of a 70 kD fluorescent dextran (ThermoFisher).
Reaction mixes consisting of 2.5 mg/ml lysate, ER, fluorescent cargo (200 nM Rango and YFP-M9-CFP, 500 nM GST-GFP-NLS), Hoechst, DPRs, RNA, or inhibitors (100 µM importazole (IPZ, Millipore Sigma); 0.8 mg/mL wheat germ agglutinin (WGA, Millipore Sigma) were assembled on ice during cell permeabilization. DPRs or inhibitors were allowed to equilibrate in cell lysate for at least 30 min prior to initiation of transport. Every plate included: (1) Cargo alone: fluorescent cargo, but no ER or lysate, (2) Untreated controls: fluorescent cargo, ER, and lysate, and (3) Inhibitor: fluorescent cargo, ER, lysate, and IPZ (Rango and GST-GFP-NLS reactions) or WGA (YFP-M9-CFP). Preassembled transport reactions were then transferred onto permeabilized cells via multichannel pipette, and allowed to proceed at room temperature for 2 hr (Rango, YFP-M9-CFP) or 4 hr (GST-GFP-NLS). Cells were fixed in 4% paraformaldehyde/PBS, rinsed 2x with PBS, and transferred to 50% glycerol/PBS for immediate imaging.
For a subset of neuron transport assays, transport was monitored live via time lapse imaging every 5 min for 30 min. […]
Multiple non-overlapping fields per well (4 for time-lapse imaging, 9-16 for fixed imaging), were captured at 40x on an ImageXpress Micro XLS high-content microscope (Molecular Devices, San Jose, CA), and the ratio of nuclear to cytoplasmic fluorescence intensity was calculated using the MetaXpress automated translocation-enhanced module. […] Resulting N/C ratios were expressed as % untreated, to permit comparisons across biological replicates.

N=C(N)NCCC[C@H](NC(=O)[C@@H]1CCCN1C(=O)[C@H](CCCNC(=N)N)NC(=O)[C@@H]1CCCN1C(=O)[C@H](CCCNC(=N)N)NC(=O)[C@@H]1CCCN1C(=O)[C@H](CCCNC(=N)N)NC(=O)[C@@H]1CCCN1C(=O)[C@H](CCCNC(=N)N)NC(=O)[C@@H]1CCCN1C(=O)[C@H](CCCNC(=N)N)NC(=O)[C@@H]1CCCN1C(=O)[C@H](CCCNC(=N)N)NC(=O)[C@@H]1CCCN1C(=O)[C@H](CCCNC(=N)N)NC(=O)[C@@H]1CCCN1C(=O)[C@H](CCCNC(=N)N)NC(=O)[C@@H]1CCCN1C(=O)[C@H](CCCNC(=N)N)NC(=O)[C@@H]1CCCN1)C(=O)O [PR10] (H-PRPRPRPRPRPRPRPRPRPR-OH; N-terminus and C-terminus assumed)
Binding to importin β-coated beads [1]: the intensity of the importin β halo persisted
Binding to BSA-coated beads ([2]; 200 nM, binding buffer): modest non-specific binding
Nonspecific binding to control beads ([2]; 1 mg/ml neuronal lysate added): nonspecific binding decreased
Rango import with supernatant only (aggregates removed by centrifugation) [3]: nuclear import remained perturbed
Rango import with supernatant only plus RNA ([3]; RNA added): restored by the addition of RNA
